Results published in patent US7045532B2 (Millennium Pharmaceuticals, Inc., priority 1999, dated 2006).
Like-named read-outs stand apart in the source and are kept apart here.

Columns and labels:
ACE-2 [1] = molecular target: T1, ACE-2 (Homo sapiens, UniProt Q9BYF1); test: ACE-2 Competitive Substrate Assay (ACS Assay); assay type: biochemical
T1 construct: a stop codon inserted after the serine immediately preceding the transmembrane domain; made in house; host or cells: CHO K1 cells (transient transfection, purified from conditioned medium)
T1 sequence (Q9BYF1 18-740 limits assumed): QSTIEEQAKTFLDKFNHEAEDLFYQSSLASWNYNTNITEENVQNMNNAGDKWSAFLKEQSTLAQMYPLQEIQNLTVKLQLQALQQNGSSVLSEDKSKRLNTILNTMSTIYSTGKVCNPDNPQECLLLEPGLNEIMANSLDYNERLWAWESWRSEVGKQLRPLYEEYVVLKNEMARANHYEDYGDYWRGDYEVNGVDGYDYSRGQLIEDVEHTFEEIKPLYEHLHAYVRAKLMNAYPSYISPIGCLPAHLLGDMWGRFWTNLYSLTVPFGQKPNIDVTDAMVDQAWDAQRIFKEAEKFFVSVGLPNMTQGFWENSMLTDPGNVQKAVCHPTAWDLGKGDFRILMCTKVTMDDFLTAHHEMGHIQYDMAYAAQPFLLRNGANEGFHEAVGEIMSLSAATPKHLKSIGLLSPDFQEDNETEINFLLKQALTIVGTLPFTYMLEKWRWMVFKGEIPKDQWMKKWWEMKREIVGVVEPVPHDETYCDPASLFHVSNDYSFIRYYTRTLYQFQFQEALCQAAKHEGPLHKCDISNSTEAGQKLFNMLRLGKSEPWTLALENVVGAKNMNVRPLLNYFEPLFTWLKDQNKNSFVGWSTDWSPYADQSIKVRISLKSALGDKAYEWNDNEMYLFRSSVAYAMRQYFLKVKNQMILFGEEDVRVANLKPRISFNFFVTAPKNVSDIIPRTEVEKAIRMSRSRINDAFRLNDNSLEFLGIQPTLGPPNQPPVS
Procedure: An example of such an assay is the ACE-2 Competitive Substrate Assay (ACS Assay).
ACE-2 enzymatic activity was assayed in microtitre plates by the following procedure. The ACE-2 assay buffer used contained 50 mM MES (Boehringer-Mannheim), 300 mM NaCl (Sigma) and 0.01% Brij-35 (Pierce Chemical Co.) at pH 6.5.
Reactions were mixed and incubated at 25° C.
The activity of the test compounds was investigated using the procedure outlined above. The compounds were tested in 5% DMSO. Enzyme activity was measured at 12 compound concentrations.
The following reagents, equipment, stock solutions, and working solutions are used for the ACE-2 assay.
The assay buffer is prepared using 50 mM Mes, 300 mM NaCl, and 0.01% Brij 35, pH 6.5. These components are measured and made up to approximately 800 ml with nanopure water. Using 1M NaOH the pH is adjusted to 6.5 and the solution is then made up to the final volume of 1 L using nanopure water. The buffer is filtered through a 0.45 um disposable filter unit and stored at +4° C. until needed.
This working solution maintains activity for up to 8 hours at room temperature.
The working ACE-2 solution (for using with Mca-APK(Dnp)) is prepared by thawing ACE-2 and diluting it to a concentration of 1 nM using the assay buffer at room temperature.
These solutions are stable up to 8 hours but can not be frozen-thawed for reuse.
Multiple well plates are used for this experiment.
Approximately 360 compounds are tested per plate. Five μl per of each test compound is added in each well. […] Immediately thereafter, 20 μl of Mca-XXX(Dnp) working solution is added per well and mixed for 30 seconds. The reaction is allowed to progress for approximately 60 minutes.
After approximately 60 minutes, 20 μl of 50 mM EDTA is added per well (reaction is linear up to 90 minutes) and mixed for 30 seconds. At this point the fluorescent signal is stable up to 20 hours at room temperature.

ACE-2 [2] = molecular target: ACE-2 (Rattus norvegicus, UniProt Q5EGZ1); test: ACE-2 Competitive Substrate Assay, rat ACE-2; assay type: biochemical; conditions: Ki class; compounds tested in 5% DMSO, 12 compound concentrations
Chain of ACE-2 (Rattus norvegicus, UniProt Q5EGZ1) (Q5EGZ1 18-805): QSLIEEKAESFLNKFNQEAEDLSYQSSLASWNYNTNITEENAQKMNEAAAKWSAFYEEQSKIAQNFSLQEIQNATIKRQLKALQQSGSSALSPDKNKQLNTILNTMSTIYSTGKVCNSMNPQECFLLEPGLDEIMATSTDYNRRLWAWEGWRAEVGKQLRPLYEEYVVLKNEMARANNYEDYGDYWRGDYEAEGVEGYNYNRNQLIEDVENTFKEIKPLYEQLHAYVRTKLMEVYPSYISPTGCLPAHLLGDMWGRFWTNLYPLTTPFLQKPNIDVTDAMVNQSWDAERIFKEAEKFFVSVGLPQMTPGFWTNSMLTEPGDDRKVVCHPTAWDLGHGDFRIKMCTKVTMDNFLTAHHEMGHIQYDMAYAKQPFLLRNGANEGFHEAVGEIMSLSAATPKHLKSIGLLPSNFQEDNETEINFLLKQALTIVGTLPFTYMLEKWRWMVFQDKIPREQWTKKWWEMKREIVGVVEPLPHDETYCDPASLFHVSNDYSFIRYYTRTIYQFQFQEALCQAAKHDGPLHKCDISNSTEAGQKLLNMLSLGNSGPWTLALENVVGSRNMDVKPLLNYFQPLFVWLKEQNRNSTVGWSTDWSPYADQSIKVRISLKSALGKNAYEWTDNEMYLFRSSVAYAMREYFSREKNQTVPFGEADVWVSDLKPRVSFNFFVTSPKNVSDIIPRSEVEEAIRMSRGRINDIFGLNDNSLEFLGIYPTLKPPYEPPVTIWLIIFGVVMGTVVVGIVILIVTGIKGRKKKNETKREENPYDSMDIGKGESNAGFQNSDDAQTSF

[3] = 34-day oral dosing in BBZDR rats (obesity and Type II diabetes model): body weight and metabolic parameters; assay type: in vivo; conditions: for Adipose Mass / Adipose Mass, percent of placebo response / Core Temperature / Core Temperature, percent of placebo response / Food Consumption / Food Consumption, percent of placebo response / Incidence of Glycosuria (Days) / Incidence of Glycosuria (Days), incidence rate / Psoas Mass / Psoas Mass, percent of placebo response / Water Consumption / Water Consumption, percent of placebo response / Incidence of Diabetes: 34 days; for Incidence of Diabetes: animals
Description: The effects of Compound HE on body weight and metabolism were studied further in the BBZDR rat, a genetic model of obesity and Type II diabetes (Biomedical Research Models, Inc, Worcester, Mass.). BBZDR rats are a cross between the BBDR/W or strain and the fa/fa rat. In BBZDR rats, diabetes occurs in 98% of obese males at an average age of onset of 68±2 days. […] The pancreatic islets of the young obese diabetic males are profoundly enlarged with β cell hyperplasia and mild fibrosis. Studies of pancreatic sections immunostained for insulin and the GLUT-2 glucose transporter reveal focal reduction in β cell insulin content and a generalized reduction in GLUT-2 staining of β cell surface membranes. Lymphocytic insulitis is not detected in either lean or obese rats. In the absence of lymphopenia and autoimmunity, the lean BBZDR rats never become diabetic, and their pancreatic islets are normal in all respects.
Compound HE was administered to male BBZDR rats (48–60 days of age) via oral gavage for a period of 34 days. There were three treatment groups, each with 6 rats/group: a) placebo (1% carboxy methyl cellulose [CMC]), b) Compound HE at 100 mg/kg/day in 1% CMC, and c) Compound HE at 300 mg/kg/day in 1% CMC. The rats were gavaged twice daily for the entire period of the study. Body weight, food intake, fluid intake, and core body temperature were monitored on a daily basis. In addition, the rats were observed twice daily for any gross behavioral/phenotypic changes. Early in the study, two animals in the 300 mg/kg/day-dose group died from trauma secondary to oral gavage (confirmed during necropsy) and were excluded from all analyses.
On Day 21, after an overnight fast, whole blood, serum and plasma samples were collected from anesthetized animals. Prior to the termination of the study, tissue and plasma samples were collected from overnight-fasted animals for histological and biochemical analyses.

[4] = Pharmacokinetic profile in BBZDR rats (plasma samples); assay type: in vivo, rat (BBZDR); conditions: 100 and 300 mg/kg/day oral gavage, 0-24 hours after dosing
Procedure: To determine the pharmacokinetic profile of Compound HE, plasma samples were taken at 0, 0.5, 1, 2, 4, 8, 12, and 24 hours after dosing in both Compound HE dose groups.

[5] = Effect on appetite: food consumption in ICR mice; conditions: 100 mg/kg oral

CC(C)CC(N[C@@H](Cc1cncn1Cc1cc(Cl)cc(Cl)c1)C(=O)O)C(=O)O (single isomer, unassigned) [HE, 2-[1-Carboxy-2-[3-(3,5-dichloro-benzyl)-3H-imidazol-4-yl]-ethylamino)4-methyl-pentanoic acid]
Ki (ACE-2 [1]; Ki class, compounds tested in 5% DMSO, 12 compound concentrations, Ki=Kiapp/(1+[S]/Km), read-out: Human ACE-2 Activity): < 100 nM
Ki (ACE-2 [1]; Table 3, very good ACE-2 inhibiting compounds, species not given, read-out: ACE-2 Activity, Ki): < 50 nM
Ki (ACE-2 [2]): < 100 nM
fluid intake, less than placebo ([3]; 100 mg-treated group): 5%
food intake, less than placebo ([3]; 100 mg-treated group): 5%
Fasted Glucose, Day 34, percent of placebo response ([3]; 100 mg/kg/day oral gavage): (100%)
Fasted Insulin, Day 34 ([3]; 100 mg/kg/day oral gavage): 8.4 ± 7.0 ng/mL
Fasted Insulin, Day 34, percent of placebo response ([3]; 100 mg/kg/day oral gavage): (62%)^a
Fasted Leptin, Day 34 ([3]; 100 mg/kg/day oral gavage): 99 ± 22 ng/mL
Fasted Leptin, Day 34, percent of placebo response ([3]; 100 mg/kg/day oral gavage): (102.7%)
Fasted Total Cholest., Day 34 ([3]; 100 mg/kg/day oral gavage): 117 ± 9 mg/dL
Fasted Total Cholest., Day 34, percent of placebo response ([3]; 100 mg/kg/day oral gavage): (88%)
Total Fasted Triglyc., Day 34 ([3]; 100 mg/kg/day oral gavage): 409 ± 6 mg/dL
Total Fasted Triglyc., Day 34, percent of placebo response ([3]; 100 mg/kg/day oral gavage): (82%)
Weight Gain thru Day 34 ([3]; 100 mg/kg/day oral gavage): 123 ± 3.4 g
Weight Gain thru Day 34, percent of placebo response ([3]; 100 mg/kg/day oral gavage): (83.9%)
Adipose Mass ([3]; 100 mg/kg/day oral gavage): 48.03 ± 1.86 g
Adipose Mass, percent of placebo response ([3]; 100 mg/kg/day oral gavage): (94%)
Core Temperature ([3]; 100 mg/kg/day oral gavage): 98.4 ± 0.13 F.
Core Temperature, percent of placebo response ([3]; 100 mg/kg/day oral gavage): (100%)
Food Consumption ([3]; 100 mg/kg/day oral gavage): 1283 ± 50.3 g
Food Consumption, percent of placebo response ([3]; 100 mg/kg/day oral gavage): (94.4%)
Incidence of Glycosuria (Days) ([3]; 100 mg/kg/day oral gavage): 31/198
Incidence of Glycosuria (Days), incidence rate ([3]; 100 mg/kg/day oral gavage): (15.7%)
Psoas Mass ([3]; 100 mg/kg/day oral gavage): 1.30 ± 0.09 g
Psoas Mass, percent of placebo response ([3]; 100 mg/kg/day oral gavage): (113%)
Water Consumption ([3]; 100 mg/kg/day oral gavage): 1388 ± 73.5 mL
Water Consumption, percent of placebo response ([3]; 100 mg/kg/day oral gavage): (94.6%)
Incidence of Diabetes ([3]; 100 mg/kg/day oral gavage): 2/6
fluid intake, less than placebo ([3]; 300 mg-treated group): 15%
food intake, less than placebo ([3]; 300 mg-treated group): 8%
Fasted Glucose, Day 34, percent of placebo response ([3]; 300 mg/kg/day oral gavage): (94%)
Fasted Insulin, Day 34 ([3]; 300 mg/kg/day oral gavage): 7.7 ± 4.1 ng/mL
Fasted Insulin, Day 34, percent of placebo response ([3]; 300 mg/kg/day oral gavage): (57%)^a
Fasted Leptin, Day 34 ([3]; 300 mg/kg/day oral gavage): 92 ± 5.3 ng/mL
Fasted Leptin, Day 34, percent of placebo response ([3]; 300 mg/kg/day oral gavage): (76%)
Fasted Total Cholest., Day 34 ([3]; 300 mg/kg/day oral gavage): 104 ± 5 mg/dL
Fasted Total Cholest., Day 34, percent of placebo response ([3]; 300 mg/kg/day oral gavage): (78%)
Total Fasted Triglyc., Day 34 ([3]; 300 mg/kg/day oral gavage): 414 ± 23 mg/dL
Total Fasted Triglyc., Day 34, percent of placebo response ([3]; 300 mg/kg/day oral gavage): (82%)
Weight Gain thru Day 34 ([3]; 300 mg/kg/day oral gavage): 125 ± 8.3 g
Weight Gain thru Day 34, percent of placebo response ([3]; 300 mg/kg/day oral gavage): (82.5%)
Adipose Mass ([3]; 300 mg/kg/day oral gavage): 48.43 ± 0.55 g
Adipose Mass, percent of placebo response ([3]; 300 mg/kg/day oral gavage): (94%)
Core Temperature ([3]; 300 mg/kg/day oral gavage): 98.4 ± 0.20 F.
Core Temperature, percent of placebo response ([3]; 300 mg/kg/day oral gavage): (100%)
Food Consumption ([3]; 300 mg/kg/day oral gavage): 1249 ± 26.8 g
Food Consumption, percent of placebo response ([3]; 300 mg/kg/day oral gavage): (91.9%)
Incidence of Glycosuria (Days) ([3]; 300 mg/kg/day oral gavage): 12/162
Incidence of Glycosuria (Days), incidence rate ([3]; 300 mg/kg/day oral gavage): (7.4%)
Psoas Mass ([3]; 300 mg/kg/day oral gavage): 1.21 ± 0.10 g
Psoas Mass, percent of placebo response ([3]; 300 mg/kg/day oral gavage): (105%)
Water Consumption ([3]; 300 mg/kg/day oral gavage): 1271 ± 101.7 mL
Water Consumption, percent of placebo response ([3]; 300 mg/kg/day oral gavage): (86.7%)
Incidence of Diabetes ([3]; 300 mg/kg/day oral gavage): 1/4
gross or histomorphological adverse effects ([3]; 34 consecutive days of oral dosing): No gross or histomorphological adverse effects
gross abdominal adipose and psoas muscle mass and core body temperature, change between groups ([3]; all three groups): no changes
plasma levels of insulin, total cholesterol and triglycerides compared to placebo ([3]; both dose groups): lower
body weight gain over the 34 days, less than placebo ([3]; both dose groups (100 and 300 mg/kg/day)): approximately 18%
statistical significance of the changes versus placebo ([3]; oral administration for 34 days): not statistically significant
systemic exposure (plasma levels) [4]: relatively low systemic levels
reduction of food intake compared to vehicle ([5]; 1 hr after administration): about 40%
reduction of food intake compared to vehicle ([5]; 3 hr after administration): about 18%
